The record followed here is patent US8916183B2, “Pesticidal compositions and processes related thereto” (priority 2012, dated 2014).

The structures appear in SMILES notation.

Holding throughout (assay type): in vivo
The test system of test [1] is Green Peach Aphid (GPA) (Myzus persicae). Nature of the test: Bioassay on green peach aphid (GPA), foliar spray on cabbage seedlings. Particulars: green peach aphid, 200 ppm, read-out: % Mortality GPA 200 ppm. A digest of the protocol:
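Cabbage seedlings (2-3 true leaves), each infested a day earlier with 20-50 wingless adult and nymph GPA, were sprayed on both leaf sides to runoff, four pots per treatment. Corrected % control was calculated against solvent-check plants.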

The subject of test [2] is Beet Armyworm (BAW) (Spodoptera exigua). Nature of the test: Bioassay on beet armyworm (BAW), 128-well diet tray assay. Particulars: Spodoptera exigua; beet armyworm, 50 μg/cm^2; read-out: % Mortality BAW 50 μg/cm^2.
Test [3] deals with Corn Earworm (CEW) (Helicoverpa zea). The test can be described thus: Bioassay on corn earworm (CEW), 128-well diet tray assay. The following applies: Helicoverpa zea; corn earworm, 50 μg/cm^2; read-out: % Mortality CEW 50 μg/cm^2. The method, boiled down:
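Activity was scored as percent larval mortality per well, averaged across eight wells and reported on a rating scale. Diet trays (128-well) were kept at 25° C with 14:10 light-dark for five to seven days.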

Regarding `COc1cccc(N2CCCS/C2=N\N=C\c2ccc(-c3ncn(-c4ccc(OC(F)(F)F)cc4)n3)cc2)c1` [Compound 206C], the mortality at 200 ppm in test [1] turned out to be 0%. The mortality at 50 µg/cm2 in test [2] and in test [3] was 50 to 100% each time.

On to `COC(=O)c1ccc(CS/C(=N\c2c(C)cccc2C)N/N=C/c2ccc(-c3ncn(-c4ccc(OC(F)(F)F)cc4)n3)cc2)cc1` [Compound 12C], for which the mortality at 200 ppm in test [1] lay within 0 to 80%. For the same compound, the mortality at 50 µg/cm2 in test [2] and in test [3] was 50 to 100% throughout.

Take `COc1cc(C)c(N2/C(=N/N=C/c3ccc(-c4ncn(-c5ccc(OC(F)(F)F)cc5)n4)cc3)SCC2(C)O)c(C)c1` (stereo not drawn) [Compound 255C]: the mortality at 200 ppm in test [1] worked out at 0%. Also, the mortality at 50 µg/cm2 in test [2] and in test [3] was 50 to 100% in each case.

For the compound `COc1cc(C)c(/N=C(/N/N=C/c2ccc(-c3ncn(-c4ccc(OC(F)(F)F)cc4)n3)cc2)SCOC(=O)C(C)(C)C)c(C)c1` [Compound 40C], the mortality at 200 ppm in test [1] was 0 to 80%. Also, the mortality at 50 µg/cm2 in test [2] and in test [3] was 50 to 100% in each case.

With `CC(C)Cc1ccccc1N1C(=O)CS/C1=N\N=C\c1ccc(-c2ncn(-c3ccc(OC(F)(F)F)cc3)n2)cc1` [Compound 119C], the mortality at 200 ppm in test [1] turned out to be 0%. Further, the mortality at 50 µg/cm2 in test [2] and in test [3] was 50 to 100% each time.

On to `COc1ccc(N2CCCS/C2=N\N=C\c2ccc(-c3ncn(-c4ccc(OC(F)(F)F)cc4)n3)cc2)c(C)c1` [Compound 192C], for which, in test [1], the mortality at 200 ppm lay in the range of 0 to 80%. Besides, the mortality at 50 µg/cm2 in test [2] and in test [3] was 50 to 100% each time.

As to `CC(C)c1ccccc1N1/C(=N/N=C/c2ccc(-c3ncn(-c4ccc(C(F)(F)F)cc4)n3)cc2)SCC1(C)O` (stereo not drawn) [Compound 261C], in test [1], the mortality at 200 ppm was found to be 0%. Moreover, the mortality at 50 µg/cm2 in test [2] and in test [3] was 50 to 100% throughout.

As for `Cc1cccc(Cl)c1-n1c(C)cs/c1=N\N=C\c1ccc(-c2ncn(-c3ccc(OC(F)(F)F)cc3)n2)cc1` [Compound 174C], in test [1], the mortality at 200 ppm was in the range of 0 to 80%. Moreover, the mortality at 50 µg/cm2 in test [2] and in test [3] was 50 to 100% in each case.

In the case of `Cc1cccc(C)c1/N=C(/N/N=C/c1ccc(-c2ncn(-c3ccc(OC(F)(F)F)cc3)n2)cc1)SCc1cccc2nsnc12` [Compound 14C], the mortality at 200 ppm in test [1] is 0 to 80%. Besides, the mortality at 50 µg/cm2 in test [2] and in test [3] was 50 to 100% throughout.

In the case of `CC(/N=C(/N/N=C/c1ccc(-c2ncn(-c3ccc(OC(F)(F)F)cc3)n2)cc1)SCC(=O)O)c1ccccc1` (stereo not drawn) [Compound 54C], the mortality at 200 ppm in test [1] amounted to 0%. In addition, the mortality at 50 µg/cm2 in test [2] and in test [3] was 50 to 100% in each case.

For `CC(C)c1cc(F)c(F)cc1N1/C(=N/N=C/c2ccc(-c3ncn(-c4ccc(OC(F)(F)F)cc4)n3)cc2)SCC1(C)O` (stereo not drawn) [Compound 259C], the mortality at 200 ppm in test [1] was determined as 0%. Moreover, the mortality at 50 µg/cm2 in test [2] and in test [3] was 50 to 100% each time.

As for `FC(F)(F)Oc1ccc(-n2cnc(-c3ccc(/C=N/N=C4\SCCN4c4ccccc4C4CC4)cc3)n2)cc1` [Compound 145C], the mortality at 200 ppm in test [1] was 0 to 80%. For the same compound, the mortality at 50 µg/cm2 in test [2] and in test [3] was 50 to 100% each time.

For `Cc1cccc(C)c1-n1c(-c2nccs2)cs/c1=N\N=Cc1ccc(-c2ncn(-c3ccc(OC(F)(F)F)cc3)n2)cc1` [Compound 75C], the mortality at 200 ppm in test [1] lay in the range of 0 to 80%. Besides, the mortality at 50 µg/cm2 in test [2] and in test [3] was 50 to 100% in each case.

For `Cc1cc(C)c(N2C(=O)CS/C2=N\N=C\c2ccc(-c3ncn(-c4ccc(OC(F)(F)F)cc4)n3)cc2)c(C)c1` [Compound 72C], the mortality at 200 ppm in test [1] lay in the range of 0 to 80%. For the same compound, the mortality at 50 µg/cm2 in test [2] and in test [3] was 50 to 100% in each case.

Turning to `CCN(CC)c1ccc(-c2cs/c(=N\N=Cc3ccc(-c4ncn(-c5ccc(OC(F)(F)F)cc5)n4)cc3)n2-c2c(C)cccc2C)cc1` [Compound 74C], the mortality at 200 ppm in test [1] stood at 0%. Besides, the mortality at 50 µg/cm2 in test [2] and in test [3] was 50 to 100% throughout.

Turning to `CC(=O)OCS/C(=N\c1c(C)cccc1C)N/N=C/c1ccc(-c2ncn(-c3ccc(OC(F)(F)F)cc3)n2)cc1` [Compound 31C], the mortality at 200 ppm in test [1] lay within 0 to 80%. Moreover, the mortality at 50 µg/cm2 in test [2] and in test [3] was 50 to 100% throughout.
